Data: US5189033A, “Tricyclic heterocycles” (Imperial Chemical Industries PLC, priority 1991, dated 1993)
Read-outs that look alike come from different tables or passages of the source.

Key:
[1] = target: T1, EP1 receptors (PGE2-induced contractions of the ileum) (Cavia porcellus, UniProt A0A286XHJ6); experiment: Test (a): in-vitro guinea pig ileum assay, inhibition of PGE2-induced contractions; settings: PGE2-induced contraction of guinea pig ileum, read-out: pA2 value (converted)
T1 construct: ileum was immersed in oxygenated Krebs solution containing indomethacin; from tissue; host or cells: guinea pig ileum
T1 sequence (A0A286XHJ6 1-405): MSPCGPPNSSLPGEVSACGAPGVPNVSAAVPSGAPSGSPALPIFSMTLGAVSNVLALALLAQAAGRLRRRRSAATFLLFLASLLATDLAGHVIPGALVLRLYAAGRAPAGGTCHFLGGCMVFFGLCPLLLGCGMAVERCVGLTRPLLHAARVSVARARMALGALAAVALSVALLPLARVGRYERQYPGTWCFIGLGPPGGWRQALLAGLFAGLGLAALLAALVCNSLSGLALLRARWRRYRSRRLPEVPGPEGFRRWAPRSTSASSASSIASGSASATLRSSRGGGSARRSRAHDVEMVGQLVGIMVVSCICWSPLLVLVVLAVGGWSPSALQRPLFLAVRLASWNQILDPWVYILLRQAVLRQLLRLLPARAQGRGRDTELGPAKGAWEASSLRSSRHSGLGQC
Experimental: (a) an in-vitro guinea pig ileum assay which assesses the inhibitory properties of a test compound against PGE2 -induced contractions of the ileum; ileum was immersed in oxygenated Krebs solution containing indomethacin (4 μg/ml) and atropine (1 μM) and which was maintained at 37° C.; the ileum was subject to a resting tension of 1 g; a control dose response curve for PGE2 -induced contraction of the ileum was obtained; test compound (dissolved in dimethylsulphoxide) was added to the Krebs solution and a dose response curve for the PGE2 -induced contraction of the ileum in the presence of the test compound was obtained; the pA2 value for the test compound was calculated;
Prostanoid receptors and in particular receptors for PGE2 have been tentatively characterised by Kennedy et al. (Advances in Prostaglandin, Thromboxane and Leukotriene Research, 1983, 11, 327).

[2] = tested on: writhing induced by the intraperitoneal administration of phenylbenzoquinone; experiment: Test (c): in-vivo assay in mice, writhing induced by phenylbenzoquinone (PBQ); settings: at 100 mg/kg, oral dosing
Description: (c) an in-vivo assay in mice which assesses the inhibitory properties of a test compound against writhing induced by the intraperitoneal administration of phenylbenzoquinone (hereinafter PBQ) using the procedure disclosed in European Patent Application No. 0218077.

[3] = tested on: writhing induced by the concomitant administration of PGE2 and bradykinin; experiment: Test (b): in-vivo assay in mice, writhing induced by PGE2 and bradykinin; settings: Mus musculus, oral dosing, read-out: ED50 for antagonism of the writhing response
PGE2 receptors = settings: cited from earlier work

Kb [1] [nM] | SMILES | activity in Test (c) [2] | ED50 [3] [mg/kg] | block of the effect of PGE2 (PGE2 receptors; cat trachea or chick ileum) | block of the effect of PGE2 (PGE2 receptors; guinea pig ileum or dog fundus)
39.8 | O=C(O)c1cccc(CN2Cc3ccccc3Oc3ccc(Cl)cc32)c1 [Example 1, 3-(8-chloro-10,11-dihydrodibenzo[b,f]-[1,4]oxazepin-10-ylmethyl)benzoic acid] | significant activity |  |  | 
100 | O=C(O)c1ccc(CN2Cc3ccccc3Oc3ccc(Cl)cc32)cc1 [Example 2, 4-(8-chloro-10,11-dihydrodibenzo[b,f][1,4]oxazepin-10-ylmethyl)-benzoic acid] |  | 19 |  | 
 | CC(=O)NNC(=O)N1Cc2ccccc2Oc2ccc(Cl)cc21 [SC-19220] |  |  | not on other tissues | blocks the effect of PGE2
